These results are taken from article PMC5586502 (Bioorganic & medicinal chemistry letters, 2017).

SMILES strings stand for the structures.

The test system of this experiment is COX-1/2 (mixed COX-1 and COX-2). In words: COX. The following applies: read-out: IC50 against COX-1/2; suggested from ~37% inhibition at 100 µM. It counts as biochemical, ovine/human.

Regarding `COc1ccc(N(Nc2ccc(Br)cc2)c2ccccc2N(Nc2ccc(Br)cc2)c2ccccc2OC)cc1` [Compound 6], the IC50 was greater than 100 µM.
